Experiment: Inhibition of bovine alpha-chymotrypsin using Suc-Leu-Leu-Val-Tyr 4-methylcoumaryl-7-amide as substrate assessed as formation of MCA after 1 hr by fluorometric method
Parameters: species or system Bos taurus
With `CCC[C@@H]1NC(=O)[C@@H]2C[C@H](C)CN2C(=O)[C@@H](NC=O)CNC(=O)[C@@H](CC)NC(=O)c2coc(n2)[C@H](C)NC(=O)C1=O` the IC50 was 2000 nM.
Compound `CCC[C@@H]1NC(=O)[C@@H]2C[C@H](C)CN2C(=O)[C@@H](NC=O)CNC(=O)[C@@H](CO)NC(=O)c2coc(n2)[C@H](C)NC(=O)C1=O` has an IC50 of 3000 nM.
With `CC(C)C[C@@H]1NC(=O)[C@@H]2C[C@H](C)CN2C(=O)[C@@H](NC=O)CNC(=O)[C@@H](CO)NC(=O)c2coc(n2)[C@H](C)NC(=O)C1=O` the IC50 was 10000 nM.

From ChEMBL document CHEMBL3853303, “Nazumazoles D-F, Cyclic Pentapeptides That Inhibit Chymotrypsin, from the Marine Sponge Theonella swinhoei” (J Nat Prod, 2016)
